Data published in patent publication US11913884B2, “Visible light-activated dyes and methods of use thereof” (William Marsh Rice University, priority 2019, dated 2024).

How the values were obtained:
[1] = Fluorescence quantum yield determination; format: physicochemical; conditions: DMSO; reference rhodamine B in ethanol or quinine sulfate in 0.5 M H2SO4
Protocol: The ^1H NMR spectroscopic measurements were carried out using a Bruker-600 NMR at 600 MHz with tetramethysilane (TMS) as internal reference. Electrospray ionization (ESI) mass spectra were performed on a Bruker MicroToF ESI LC-MS System in positive-ion mode. The steady-state absorption spectra were obtained with a ThermoFisher Evolution 220 UV-Vis spectrophotometer in 1 cm path length quartz cells. Fluorescence spectra were recorded using spectrophotometer (SPEX FluoroLog-3). Quantum yield in DMSO was measured relative to the fluorescence of Rhodamine B (Φ=0.65) in ethanol or quinine sulfate (Φ=0.55) in 0.5 M·L^−1 H2SO4. FT-IR spectrum was taken on a PerkinElmer Spectrum 100 FT-IR Spectrometers. Confocal fluorescent images of living cells were performed using Nikon A1R-si Laser Scanning Confocal Microscope (Japan), equipped with lasers of 405/488/561/638 nm. STORM images were performed on a NSTORM (Nikon, Japan), featuring a CFI Apo TIRF 100× oil objective (NA 1.49) on an inverted Nikon Ti Eclipse microscope with a quad cube filter (Chroma, zt405/488/561/640 m-TRF), piezo stage, and Perfect Focus System (Nikon) for Z-stability. Light source are hand-held UV lamp, BlueView Transilluminator (470 nm centred, Vernier), Prior Lumen200 with 615/30 filter and 850 LED (Mouser Electronics).
Quantum yields were measured with Rhodamine B as reference (Φ=0.65) or quinine sulfate (Φ=0.55) in 0.5 M H2SO4. Fluorescence measurements were performed in 1 cm quartz cells with 5 μM samples in DMSO on spectrophotometer (SPEX FluoroLog-3) (slits 5×5). The fluorescence quantum yield, Φ (sample), were calculated according to equation as following:
[formula] Φ: quantum yield; I: integrated emission intensity; OD: optical density at the excitation wavelength; d: refractive index of solvents, dDMSO=1.478; dethanol=1.36; dwater=1.33.

[2] = tested on: adipocytes differentiated from 3T3-L1 cells; test: Co-localization assay by confocal laser scanning microscopy; format: cell-based; conditions: 2 μM, 10 mins, after 488-nm laser for 30 s
Protocol: Before testing the utility of thio-caged fluorophores for investigating biological systems, the cytotoxicity of SNile Red in adipocytes was evaluated using Cell Counting Kit-8. At a concentration of 4 μM SNile Red, 90% of 3T3-L1 cells remained viable even after 24 hours (FIG. 10). Thio-caged dyes were then used to obtain subcellular structural data via fluorescence imaging of adipocytes. Nile Red and BODIPY are the fluorescent dyes most commonly used for lipid imaging (Corsaro and Pistara, 1998, Spiller et al., 1998, Tang et al., 2013). Confocal laser scanning microscopy (CLSM) was used to determine the specificity of SNile Red localization in adipocytes differentiated from 3T3-L1 cells. For colocalization studies, adipocytes were stained with 2 μM SNile Red and 100 nM BODIPY 493/503 for 10 mins.
3T3-L1 cells were differentiated to adipocytes according to the protocol from ATCC (Chemically-induced differentiation of at CC® CL-173TM (3T3-L1) using single-Component Commercially-available reagents). […]
After incubation of 2 μM SNile Red for 10 min, cells were washed with PBS (pH 7.4) twice and turned to confocal laser scanning microscope (CLSM). […] Differential interference contrast (DIC) and fluorescent images were processed and analyzed using ImageJ. The Pearson's Coefficient was calculated by ImageJ.

[3] = tested on: differentiated 3T3-L1 adipocytes; test: Photoactivation and photobleaching in living adipocytes (CLSM); format: cell-based
Excerpt: Super-resolution imaging based on sequential imaging of a specific region of labeled tissue or cell culture relies on the ability to modulate the fluorescence of fluorophores between dark and bright states (Bates et al., 2007, Sengupta et al., 2014). […] Furthermore, the photoactivation of SNile Red can be achieved using visible light, affording lower phototoxicity and better tissue penetration than use of UV light. […] A 488 nm laser was utilized to activate SNile Red, while a 561 nm laser was used for photobleaching. […] Following irradiation with the 488-nm laser for 80 s, a five-fold increase of fluorescence intensity was detected. Subsequently, photobleaching was performed in the same cells using the 561-nm laser. As shown in FIGS. 13B & 13D, the fluorescence intensity decayed to 10% of its maximum within 360 s continuous scanning. This photoswitching flexibility holds promise for SNile Red utilization in further photoactivatable localization microscopy (PALM) studies. Next, the utility of SNile Red for performing super-resolution imaging of lipid droplets was explored. […] Compared to the conventional widefield fluorescence image (FIG. 13B) and Differential interference contrast (DIC) image (FIGS. 13A-B), the PALM reconstruction outlines a pair of lipid droplets with a resolution beyond the optical diffraction limit (FIGS. 13B &13C). […]

SMILES: CCN(CC)c1ccc2nc3c4ccccc4c(=S)cc-3oc2c1 [SNile Red]
- ø (fluorescence quantum yield) [1]: <0.001
- colocalization with BODIPY 493/503 labeling [2]: more than 90%
- fluorescence intensity after photobleaching, of its maximum ([3]; 561-nm laser, within 360 s continuous scanning): 10%
- increase of fluorescence intensity in cells ([3]; irradiation with 488-nm laser for 80 s): five-fold
